Test results as given in the NIST ThermoML archive (doi:10.1016/j.tca.2006.11.008).
Numbers after ± are expanded uncertainties.

Experiment: molar enthalpy of vaporization or sublimation
Conditions: Crystal, Static calorimetry

Row | SMILES | molar enthalpy (386 K) [kcal/mol] | molar enthalpy (426.8 K) [kcal/mol]
1 | NC(=O)N1CCCCC1 [1-piperidinecarboxamide] | 23.9 ± 0.311 | –
2 | NC(=O)C1CCCNC1 (stereo not drawn) [3-piperidinecarboxamide] | 26.9 ± 0.311 | –
3 | NC(=O)C1CCNCC1 [4-piperidinecarboxamide] | – | 29.5 ± 0.311
